Read-outs that look alike come from different tables or passages of the source.
Molecular target: human TYK2 (JH2domain-pseudokinase) (Homo sapiens (Human), UniProt P29597)
Experiment: TYK2 JH2 Domain Binding Assay (KINOMEscan)
[1] = Table 4, JH2 binding assay, read-out: JH2 Kd
[2] = Table 5, Tyk2 JH2 Domain Binding Assay, read-out: JH2 Kd

Chain of human TYK2 (JH2domain-pseudokinase) (P29597 556-888): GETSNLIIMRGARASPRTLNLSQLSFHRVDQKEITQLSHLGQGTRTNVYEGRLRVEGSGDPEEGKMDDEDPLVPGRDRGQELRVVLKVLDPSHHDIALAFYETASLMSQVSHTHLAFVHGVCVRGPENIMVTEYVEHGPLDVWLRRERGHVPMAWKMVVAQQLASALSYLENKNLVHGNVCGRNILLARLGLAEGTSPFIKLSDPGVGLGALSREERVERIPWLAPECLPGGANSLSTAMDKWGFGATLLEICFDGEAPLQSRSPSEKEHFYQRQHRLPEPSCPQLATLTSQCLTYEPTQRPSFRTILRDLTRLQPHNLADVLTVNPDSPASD

| Structure (SMILES) | Kd [1] [nM] | also measured |
| --- | --- | --- |
| COc1c(Cl)cccc1Nc1cc(Nc2cccc(C#N)n2)nc2[nH]n(C)c(=O)c12 [Compound I-99, 6-((4-((3-chloro-2-methoxyphenyl)amino)-2-methyl-3-oxo-2,3-dihydro-1H-pyrazolo[3,4-b]pyridin-6-yl)amino)picolinonitrile] | 0.5 to 1 | – |
| CNc1nn(-c2cccc(-c3ncn(C)n3)c2OC)c2cc(NC(=O)C3CC3)ncc12 [XVI-1, N-(1-(2-methoxy-3-(1-methyl-1H-1,2,4-triazol-3-yl)phenyl)-3-(methylamino)-1H-pyrazolo[4,3-c]pyridin-6-yl)cyclopropanecarboxamide] | – | Kd [2]: 10 to 100 nM; Kd (Tyk2 JH2 Domain Binding Assay, read-out: Kd): 7000 to 10000 nM |
| Cn1[nH]c2nc(Nc3cccc(C#N)n3)cc(Nc3ccccc3S(C)(=O)=O)c2c1=O [Compound I-112, 6-((2-methyl-4-((2-(methylsulfonyl)phenyl)amino)-3-oxo-2,3-dihydro-1H-pyrazolo[3,4-b]pyridin-6-yl)amino)picolinonitrile] | < 0.1 | – |
| COc1cc(C2CC2)ccc1Nc1cc(NC(=O)C2CC2)nc2[nH]n(C)c(=O)c12 [Compound I-50, N-(4-((4-cyclopropyl-2-methoxyphenyl)amino)-2-methyl-3-oxo-2,3-dihydro-1H-pyrazolo[3,4-b]pyridin-6-yl)cyclopropanecarboxamide] | 1 to 10 | – |
| COc1c(Cl)cccc1Nc1cc(Nc2ccc(C(=O)N3CCCC3)c(C(F)(F)F)n2)nc2[nH]n(C)c(=O)c12 [Compound I-128, 4-((3-chloro-2-methoxyphenyl)amino)-2-methyl-6-((5-(pyrrolidine-1-carbonyl)-6-(trifluoromethyl)pyridin-2-yl)amino)-1,2-dihydro-3H-pyrazolo[3,4-b]pyridin-3-one] | 0.1 to 0.5 | – |
| [2H]C([2H])([2H])n1[nH]c2nc(NC(=O)C3CC3)cc(Nc3cccc(-c4nnn(C)n4)c3OC)c2c1=O [Compound I-100] | < 0.1 | – |
| COc1c(Nc2cc(Nc3ccc(C)nn3)nc3[nH]n(C)c(=O)c23)cccc1-c1ncn(C)n1 [Compound I-23, 4-((2-methoxy-3-(1-methyl-1H-1,2,4-triazol-3-yl)phenyl)amino)-2-methyl-6-((6-methylpyridazin-3-yl)amino)-1,2-dihydro-3H-pyrazolo[3,4-b]pyridin-3-one] | > 10 | – |
| COc1c(Nc2cc(Nc3ccccn3)nc3[nH]n(C)c(=O)c23)cccc1-c1nnn(C)n1 [Compound I-4, 4-((2-methoxy-3-(2-methyl-2H-tetrazol-5-yl)phenyl)amino)-2-methyl-6-(pyridin-2-ylamino)-1,2-dihydro-3H-pyrazolo[3,4-b]pyridin-3-one] | 0.1 to 0.5 | – |
| COc1c(Cl)cccc1Nc1cc(Nc2cc(C)c(F)cn2)nc2[nH]n(C)c(=O)c12 [Compound I-95, 4-((3-chloro-2-methoxyphenyl)amino)-6-((5-fluoro-4-methylpyridin-2-yl)amino)-2-methyl-1,2-dihydro-3H-pyrazolo[3,4-b]pyridin-3-one] | 1 to 10 | – |
| COc1c(Cl)cccc1Nc1cc(Nc2cncc(C#N)n2)nc2[nH]n(C)c(=O)c12 [Compound I-117, 6-((4-((3-chloro-2-methoxyphenyl)amino)-2-methyl-3-oxo-2,3-dihydro-1H-pyrazolo[3,4-b]pyridin-6-yl)amino)pyrazine-2-carbonitrile] | > 10 | – |
| CN(c1cc(C2CCCOC2)ccc1Nc1cc(NC(=O)C2CC2)nc2[nH]n(C)c(=O)c12)S(C)(=O)=O (stereo not drawn) [Compound I-240] | 0.1 to 0.5 | – |
| COc1c(Cl)cccc1Nc1cc(Nc2ccc(N3CCOCC3)cn2)nc2[nH]n(C)c(=O)c12 [Compound I-115, 4-((3-chloro-2-methoxyphenyl)amino)-2-methyl-6-((5-morpholinopyridin-2-yl)amino)-1,2-dihydro-3H-pyrazolo[3,4-b]pyridin-3-one] | 1 to 10 | – |
| COc1c(Nc2cc(NC(=O)C3CC3)nc3[nH]n(C)c(=O)c23)cccc1-c1ccn(C)n1 [Compound I-57] | < 0.1 | – |
| Cn1[nH]c2nc(Nc3ccccn3)cc(Nc3ccccc3S(C)(=O)=O)c2c1=O [Compound I-142, 2-methyl-4-((2-(methylsulfonyl)phenyl)amino)-6-(pyridin-2-ylamino)-1,2-dihydro-3H-pyrazolo[3,4-b]pyridin-3-one] | 0.1 to 0.5 | – |
| COc1c(C#N)cccc1Nc1cc(Nc2ccc(C)nn2)nc2[nH]n(C)c(=O)c12 [Compound I-38] | > 10 | – |
| COc1c(Cl)cccc1Nc1cc(Nc2cnc(C)c(C#N)n2)nc2[nH]n(C)c(=O)c12 [Compound I-135, 6-((4-((3-chloro-2-methoxyphenyl)amino)-2-methyl-3-oxo-2,3-dihydro-1H-pyrazolo[3,4-b]pyridin-6-yl)amino)-3-methylpyrazine-2-carbonitrile] | 1 to 10 | – |

| Structure (SMILES) | Kd [1] [nM] | also measured |
| --- | --- | --- |
| COc1c(C#N)cccc1Nc1cc(Nc2ccc(C)cn2)nc2[nH]n(C)c(=O)c12 [Compound I-34] | > 10 | – |
| COC1CN(c2ccc(Nc3cc(NC(=O)C4CC4)nc4[nH]n(C)c(=O)c34)c(N(C)S(C)(=O)=O)c2)C1 [Compound I-220, N-(4-((4-(3-methoxyazetidin-1-yl)-2-(N-methylmethylsulfonamido)phenyl)amino)-2-methyl-3-oxo-2,3-dihydro-1H-pyrazolo[3,4-b]pyridin-6-yl)cyclopropane-carboxamide] | 0.1 to 0.5 | – |
| COc1c(Cl)cccc1Nc1cc(Nc2ccc(N3CCCC3=O)c(C#N)n2)nc2[nH]n(C)c(=O)c12 [Compound I-134, 6-((4-((3-chloro-2-methoxyphenyl)amino)-2-methyl-3-oxo-2,3-dihydro-1H-pyrazolo[3,4-]pyridin-6-yl)amino)-3-(2-oxopyrrolidin-1-yl)picolinonitrile] | 0.1 to 0.5 | – |
| Cn1[nH]c2nc(NC(=O)C3CC3)cc(Nc3ccc(C(=O)N4CCCC4)cc3OC(F)F)c2c1=O [Compound I-151] | > 10 | – |
| COc1c(Cl)cccc1Nc1cc(Nc2cnc(C3CC3)c(C#N)n2)nc2[nH]n(C)c(=O)c12 [Compound I-146, 6-((4-((3-chloro-2-methoxyphenyl)amino)-2-methyl-3-oxo-2,3-dihydro-1H-pyrazolo[3,4-b]pyridin-6-yl)amino)-3-cyclopropylpyrazine-2-carbonitrile] | > 10 | – |
| COCc1ccc(Nc2cc(Nc3cccc(C#N)n3)nc3[nH]n(C)c(=O)c23)c(OC)c1 [Compound I-68, 6-((4-((2-methoxy-4-(methoxymethyl)phenyl)amino)-2-methyl-3-oxo-2,3-dihydro-1H-pyrazolo[3,4-b]pyridin-6-yl)amino)picolinonitrile] | 0.1 to 0.5 | – |
| COc1c(Nc2cc(Nc3ccc(N4CCOCC4)cn3)nc3[nH]n(C)c(=O)c23)cccc1-c1ncn(C)n1 [Compound I-20, 4-((2-methoxy-3-(1-methyl-1H-1,2,4-triazol-3-yl)phenyl)amino)-2-methyl-6-((5-morpholinopyridin-2-yl)amino)-1,2-dihydro-3H-pyrazolo[3,4-b]pyridin-3-one] | 0.1 to 0.5 | – |
| COc1cc(C(=O)N2CCC2)ccc1Nc1cc(NC(=O)C2CC2)nc2[nH]n(C)c(=O)c12 [Compound I-82, N-(4-((4-(azetidine-1-carbonyl)-2-methoxyphenyl)amino)-2-methyl-3-oxo-2,3-dihydro-1H-pyrazolo[3,4-b]pyridin-6-yl)cyclopropanecarboxamide] | 0.1 to 0.5 | – |
| Cc1ccnc(Nc2cc(Nc3ccccc3S(C)(=O)=O)c3c(=O)n(C)[nH]c3n2)c1 [Compound I-138, 2-methyl-6-((4-methylpyridin-2-yl)amino)-4-((2-(methylsulfonyl)phenyl)amino)-1,2-dihydro-3H-pyrazolo[3,4-b]pyridin-3-one] | 0.5 to 1 | – |
| COCc1ccnc(Nc2cc(Nc3ccc(C4CC4)cc3S(C)(=O)=O)c3c(=O)n(C)[nH]c3n2)c1 [Compound I-214, 4-((4-cyclopropyl-2-(methylsulfonyl)phenyl)amino)-6-((4-(methoxymethyl)pyridin-2-yl)amino)-2-methyl-1,2-dihydro-3H-pyrazolo[3,4-b]pyridin-3-one] | 0.1 to 0.5 | – |
| COc1c(Nc2cc(Nc3cccc(C4CC4)n3)nc3[nH]n(C)c(=O)c23)cccc1-c1nnn(C)n1 [Compound I-65, 6-((6-cyclopropylpyridin-2-yl)amino)-4-((2-methoxy-3-(2-methyl-2H-tetrazol-5-yl)phenyl)amino)-2-methyl-1,2-dihydro-3H-pyrazolo[3,4-b]pyridin-3-one] | 0.1 to 0.5 | – |
| COc1cc(CO)ccc1Nc1cc(Nc2cccc(C(F)(F)F)n2)nc2[nH]n(C)c(=O)c12 [Compound I-72, 4-((4-(hydroxymethyl)-2-methoxyphenyl)amino)-2-methyl-6-((6-(trifluoromethyl)pyridin-2-yl)amino)-1,2-dihydro-3H-pyrazolo[3,4-b]pyridin-3-one] | 1 to 10 | – |
| COc1c(Nc2cc(Nc3cc(C)c(F)cn3)nc3[nH]n(C)c(=O)c23)cccc1-c1ccn(C)n1 [Compound I-120, 6-((5-fluoro-4-methylpyridin-2-yl)amino)-4-((2-methoxy-3-(1-methyl-1H-pyrazol-3-yl)phenyl)amino)-2-methyl-1,2-dihydro-3H-pyrazolo[3,4-b]pyridin-3-one] | 1 to 10 | – |
| Cc1ccc(Nc2cc(Nc3ccc(Cl)cc3S(C)(=O)=O)c3c(=O)n(C)[nH]c3n2)nc1C(F)(F)F [Compound I-208, 4-((4-chloro-2-(methylsulfonyl)phenyl)amino)-2-methyl-6-((5-methyl-6-(trifluoromethyl)pyridin-2-yl)amino)-1,2-dihydro-3H-pyrazolo[3,4-b]pyridin-3-one] | 0.5 to 1 | – |
| Cc1cc(Nc2cc(Nc3ccc(C4CC4)cc3S(C)(=O)=O)c3c(=O)n(C)[nH]c3n2)nc(C)n1 [Compound I-206, 4-((4-cyclopropyl-2-(methylsulfonyl)phenyl)amino)-6-((2,6-dimethylpyrimidin-4-yl)amino)-2-methyl-1,2-dihydro-3H-pyrazolo[3,4-b]pyridin-3-one] | 0.5 to 1 | – |
| COc1c(Nc2cc(NC(=O)C3CC3)ncc2-c2nnc(C)s2)cccc1-c1ncn(C)n1 [VIII-7, N-(4-((2-methoxy-3-(1-methyl-1H-1,2,4-triazol-3-yl)phenyl)amino)-5-(5-methyl-1,3,4-thiadiazol-2-yl)pyridin-2-yl)cyclopropanecarboxamide] | – | Kd [2]: 1 to 10 nM |

From patent US10323036B2 (Nimbus Lakshmi, Inc., priority 2016, dated 2019)
